Structures are written as SMILES.

In this assay the test system is VJ-300 cells. In words: In vitro test of action suppressing proliferation of cancer cells, combined administration of doxorubicin (colony formation), resistant cells. Format: cell-based, Human. The note with it: ADM alone or ADM + test compound 1 µg/ml, LD50 of ADM relative to ADM alone in KB cells = 1, 7 days incubation, colony count. The protocol:
Human rhinopharynx cancer derived KB cells (i.e., sensitive cells) and their multi-drug resistant clone VJ-300 cells (i.e., resistant cells) were used as the test cells. As the incubation solutions, use was made of 10% fetal calf serum (Flow Laboratories) and Eagle MEM medium (Nissui Seiyaku) containing 0.292 mg/ml of L-glutamine (Flow Laboratories). The tests of the action for overcoming resistance to anti-cancer drugs or action for increasing the effect of the anti-cancer drug with the combined administration of the anti-cancer drug doxorubicin (i.e., adriamycin, ADM) and the test compound were performed as follows:
The test cells were suspended in incubation solutions and adjusted to a cell density of about 200 cells/ml. The cell suspensions were injected in 2 ml amounts into petri dishes and were incubated in a CO2 gas incubator (5% CO2, 95% air) at 37°C for 24 hours. Then, 5 µl of a predetermined concentration of the aqueous ADM solution and a predetermined concentration of a DMSO solution of the test compound were added, then the incubation was continued for a further 7 days. After the end of the incubation, the result was immobilized with methanol, Giemsa stained and measured for the number of colonies per dish. The results were used to prepare a volume-reaction curve. […] The results are shown in Table 8 to Table 10 using the concentration of LD50 of ADM in the ADM alone group by KB cells as the resistance degree 1 and calculating the resistances of the following LD50 concentrations as relative ratios. […]
For the compound `CCOC(=O)C1=C(c2ccc(-n3c(C)nc4ncccc43)cc2)NC(C)=C(C(=O)OC/C=C/c2cccnc2)C1/C=C/c1ccccc1Cl` (centres unmarked) [Compound 22, 4-[(E)-2-(2-chlorophenyl]ethenyl]-6-methyl-2-[4-(2-methylimidazo[4,5-b]pyridin-1-yl)phenyl]-1,4-dihydropyridin-3,5-dicarboxylate 3-ethylester, 5-[(E)-3-(3-pyridyl)-2-propenyl]ester], the “Degree of resistance for ADM VJ-300” value is 1.7.
On to `CCOC(=O)C1=C(c2ccc(-n3c(C)nc4cnccc43)cc2)NC(C)=C(C(=O)OC/C=C/c2cccnc2)C1/C=C/c1ccccc1` (centres unmarked) [Compound 25, 6-methyl-2-[4-(2-methylimidazo[4,5-c]pyridin-1-yl)phenyl]-4-[(E)-2-phenylethenyl]-1,4-dihydropyridin-3,5-dicarboxylate 3-ethylester, 5-[(E)-3-(3-pyridyl)-2-propenyl]ester], for which the “Degree of resistance for ADM VJ-300” value worked out at 1.1.
Under `CCOC(=O)C1=C(c2ccc(-n3c(C)nc4cnccc43)cc2)NC(C)=C(C(=O)OC/C=C/c2cccnc2)C1CCc1ccsc1` (centres unmarked) [Compound 26, 6-methyl-2-[4-(2-methylimidazo[4,5-c]pyridin-1-yl)phenyl]-4-[2-(3-thienyl)ethyl)-1,4-dihydropyridin-3,5-dicarboxylate 3-ethylester, 5-[(E)-3-(3-pyridyl)-2-propenyl]ester] stands 1.8; under `CCOC(=O)C1=C(c2ccc(-n3c(C)nc4cnccc43)cc2)NC(C)=C(C(=O)OC/C=C/c2cccnc2)C1/C=C/c1ccoc1` (centres unmarked) [Compound 27, 4-[(E]-2-(3-furyl)ethenyl]-6-methyl-2-[4-(2-methylimidazo[4,5-c]pyridin-1-yl)phenyl]-1,4-dihydropyridin-3,5-dicarboxylate 3-ethylester, 5-[(E)-3-(3-pyridyl)-2-propenyl]ester], 8.7.
In the case of `CCOC(=O)C1=C(c2ccc(-n3c(C)nc4cnccc43)cc2)NC(C)=C(C(=O)OC/C=C/c2cccnc2)C1CCC1CCCCC1` (centres unmarked) [Compound 28, 4-(2-cyclohexylethyl)-6-methyl-2-[4-(2-methylimidazo[4,5-c]pyridin-1-yl)phenyl]-1,4-dihydropyridin-3,5-dicarboxylate 3-ethylester, 5-[(E)-3-(3-pyridyl)-2-propenyl]ester] it was 1.7.
In the case of `CCOC(=O)C1=C(c2ccc(-n3c(C)nc4cnccc43)cc2)NC(C)=C(C(=O)OC/C=C/c2cccnc2)C1C=C1CCCCC1` (centres unmarked) [Compound 29, 4-cyclohexylidenemethyl-6-methyl-2-[4-(2-methylimidazo[4,5-c]pyridin-1-yl)phenyl]-1,4-dihydropyridin-3,5-dicarboxylate 3-ethylester, 5-[(E)-3-(3-pyridyl)-2-propenyl]ester] it was 1.2; in that of `CCOC(=O)C1=C(c2ccc(N3CCN(C)CC3)cc2)NC(C)=C(C(=O)OC/C=C/c2cccnc2)C1/C=C/c1ccccc1` (centres unmarked) [Compound 30, 6-methyl-2-[4-(4-methylpiperadin-1-yl)phenyl]-1,4-dihydropyridin-4-[(E)-2-phenylethenyl]-3,5-dicarboxylate 3-ethylester, 5-[(E)-3-(3-pyridyl)-2-propenyl]ester], 1.0.
As to `CCOC(=O)C1=C(c2ccc(SC)cc2)NC(C)=C(C(=O)OC/C=C/c2cccnc2)C1/C=C/c1ccccc1` (centres unmarked) [Compound 31, 6-methyl-2-(4-methylthiophenyl)-1,4-dihydropyridin-4-[(E)-2-phenylethenyl]-3,5-dicarboxylate 3-ethylester, 5-[(E)-3-(3-pyridyl)-2-propenyl]ester], the “Degree of resistance for ADM VJ-300” value amounted to 2.6.
Consider `CCOC(=O)C1=C(c2ccc(-n3nnc4ccccc43)cc2)NC(C)=C(C(=O)OC/C=C/c2cccnc2)C1/C=C/c1ccccc1` (centres unmarked) [Compound 32, 2-[4-(1H-benzotriazol-1-yl)phenyl]-6-methyl-4-[(E)-2-phenylethenyl]-1,4-dihydropyridin-3,5-dicarboxylate 3-ethylester, 5-[(E)-3-(3-pyridyl)-2-propenyl]ester], for which the “Degree of resistance for ADM VJ-300” value came out at 1.4.
In the case of `CCOC(=O)C1=C(c2ccc(N3CCOCC3)cc2)NC(C)=C(C(=O)OC/C=C/c2cccnc2)C1/C=C/c1ccccc1` (centres unmarked) [Compound 34, 6-methyl-2-(4-morpholinophenyl)-4-[(E)-2-phenylethenyl]-1,4-dihydropyridin-3,5-dicarboxylate 3-ethylester, 5-[(E)-3-(3-pyridyl)-2-propenyl]ester] it was 3.0.
Under `CCOC(=O)C1=C(c2ccc(-n3ccc4ccccc43)cc2)NC(C)=C(C(=O)OC/C=C/c2cccnc2)C1/C=C/c1ccccc1` (centres unmarked) [Compound 35, 2-[4-(1-indolyl)phenyl]-6-methyl-4-[(E)-2-phenylethenyl]-1,4-dihydropyridin-3,5-dicarboxylate 3-ethylester, 5-[(E)-3-(3-pyridyl)-2-propenyl]ester] stands 3.0.
In the case of `CCOC(=O)C1=C(c2cccc(-n3ccnc3)c2)NC(C)=C(C(=O)OC/C=C/c2cccnc2)C1/C=C/c1ccccc1` (centres unmarked) [Compound 36, 2-[3-(1-imidazolyl)phenyl]-6-methyl-4-[(E)-2-phenylethenyl]-1,4-dihydropyridin-3,5-dicarboxylate 3-ethylester, 5-[(E)-3-(3-pyridyl)-2-propenyl]ester] it was 1.0; in that of `CCCCCC1C(C(=O)OC/C=C/c2cccnc2)=C(C)NC(c2cccc(-n3ccnc3)c2)=C1C(=O)OCC` (centres unmarked) [Compound 37, 2-[3-(1-imidazolyl)phenyl]-6-methyl-4-pentyl-1,4-dihydropyridin-3,5-dicarboxylate 3-ethylester, 5-[(E)-3-(3-pyridyl)-2-propenyl]ester], 2.5; in that of `COC(=O)C1=C(c2ccc(-n3ccnc3)cc2)NC(C)=C(C(=O)OC/C=C/c2cccnc2)C1C1CCCCC1` (centres unmarked) [Compound 38, 4-cyclohexyl-2-[4-(1-imidazolyl)phenyl]-6-methyl-1,4-dihydropyridin-3,5-dicarboxylate 3-methylester, 5-[(E)-3-(3-pyridyl)-2-propenyl]ester], 2.4.
For `COC(=O)C1=C(c2ccc(-n3ccnc3)cc2)NC(C)=C(C(=O)OC/C=C/c2cccnc2)C1/C=C/c1ccccc1` (centres unmarked) [Compound 39, 2-[4-(1-imidazolyl)phenyl]-6-methyl-1,4-dihydropyridin-4-[(E)-2-phenylethenyl]-3,5-dicarboxylate 3-methylester, 5-[(E)-3-(3-pyridyl)-2-propenyl]ester], the “Degree of resistance for ADM VJ-300” value was 1.2.
In the case of `COC(=O)C1=C(c2ccc(-n3ccnc3)cc2)NC(C)=C(C(=O)OC/C=C/c2cccnc2)C1C#Cc1ccccc1` (centres unmarked) [Compound 40, 2-[4-(1-imidazolyl)phenyl]-6-methyl-4-phenylethynyl-1,4-dihydropyridin-3,5-dicarboxylate 3-methylester, 5-[(E)-3-(3-pyridyl)-2-propenyl]ester] it was 2.5.
In the case of `COC(=O)C1=C(c2ccc(-n3c(C)nc4cnccc43)cc2)NC(C)=C(C(=O)OC/C=C/c2cccnc2)C1/C=C/c1ccsc1` (centres unmarked) [Compound 41] it was 7.8.

Source of the values: patent EP0943615A1, “1,4-DIHYDROPYRIDINE DERIVATIVES” (Nikken Chemicals Company, Limited, priority 1996, dated 1998).
